What was measured:
[1] = system: Pseudomonas aeruginosa 10490; assay: MIC (Minimum Inhibitory Concentration) determined by conventional method, Pseudomonas aeruginosa 10490; format: cell-based
Excerpt: (§1) MIC (Minimum Inhibitory Concentration) value
(§2) determined by conventional method

Escherichia coli 114 = assay: MIC (Minimum Inhibitory Concentration) determined by conventional method, Escherichia coli 114; format: cell-based
Excerpt: as §1, §2

MIC (Minimum Inhibitory Concentration) value [1]: 25
MIC (Minimum Inhibitory Concentration) value (Escherichia coli 114): 1.6
Structure (SMILES): NC(CCOc1ccc(C(=O)C(=O)NC2CN(C(C(=O)O)c3ccc(O)cc3)C2=O)cc1)C(=O)O (centres unmarked) [d.circle.]

— patent US4237305A, “Substituted phenylacetic acid compounds and process for preparation thereof” (Fujisawa Pharmaceutical Co., Ltd., priority 1976, dated 1980)
